Values joined by “and” are separate entries in the source; they are usually repeats but may differ in a detail not shown here. Equal entries are not always repeated.
Experiments:
oxytocin receptors = molecular target: T1, oxytocin receptors (Rattus norvegicus, UniProt P70536); test: Oxytocin Receptor Binding; conditions: for inhibition at 10 µM: [3H]oxytocin; for IC50: 1.0 nM [3H]oxytocin
T1 construct: The uteri are dissected out, cleaned of fat and connective tissues; from tissue; host or cells: uterus of DES-treated female Sprague-Dawley rats
T1 sequence (P70536 1-388): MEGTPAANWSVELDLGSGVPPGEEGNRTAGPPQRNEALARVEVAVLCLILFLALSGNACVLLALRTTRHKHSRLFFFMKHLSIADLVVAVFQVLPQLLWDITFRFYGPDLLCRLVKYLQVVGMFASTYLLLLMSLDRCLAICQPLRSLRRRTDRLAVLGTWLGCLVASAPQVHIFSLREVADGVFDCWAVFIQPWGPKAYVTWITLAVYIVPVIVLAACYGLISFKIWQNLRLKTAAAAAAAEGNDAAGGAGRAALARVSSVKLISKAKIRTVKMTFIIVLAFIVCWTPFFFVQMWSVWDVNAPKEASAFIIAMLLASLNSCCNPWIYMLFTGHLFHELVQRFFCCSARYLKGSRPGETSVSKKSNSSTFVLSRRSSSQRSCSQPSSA
Description: Oxytocin Receptor Binding
Female Sprague-Dawley rats weighing approximately 200-250 g are injected intramuscularly (i.m.) with 0.3 mg/kg of body weight of diethylstilbestrol (DES). The rats are sacrificed 18 hours later under pentobarbital anesthesia. The uteri are dissected out, cleaned of fat and connective tissues and rinsed in 50 ml of normal saline. The tissue pooled from six rats is homogenized in 50 ml of […] Tris.HCl, containing 0.5 mM dithiothreitol and 1.0 mM EDTA, adjusted to pH 7.4, using a polytron at setting 6 with three passes of 10 sec each. The homogenate is passed through two (2) layers of cheesecloth and the filtrate centrifuged at 1000× g for 10 min. The clear supernatant is removed and recentrifuged at 165,000× g for 30 min. The resulting pellet containing the oxytocin receptors is resuspended in 50.0 mM Tris.HCl containing 5.0 mM MgCl2 at pH 7.4, to give a protein concentration of 2.5 mg/ml of tissue suspension. This preparation is used in subsequent binding assays with [^3 H]Oxytocin.
Binding of 3,5-[^3 H]Oxytocin ([^3 H]OT) to its receptors is done in microtiter plates using [^3 H]OT, at various concentrations, in an assay buffer of 50.0 mM Tris.HCl, pH 7.4 and containing 5.0 mM MgCl2, and a mixture of protease inhibitors: BSA, 0.1 mg; aprotinin, 1.0 mg; 1,10-phenanthroline, 2.0 mg; […], 10.0 mg; and PMSF, 0.3 mg per 100 ml of buffer solution. Non-specific binding is determined in the presence of 1.0 uM unlabeled OT. The binding reaction is terminated after 60 min , at 22° C. by rapid filtration through glass fiber filters using a Brandel® cell harvester (Biomedical Research and Development Laboratories, Inc., Gaithersburg, Md.). Competition experiments are conducted at equilibrium using 1.0 nM [^3 H]OT and varying the concentration of the displacing agents. The concentrations of agent displacing 50% of [^3 H]OT at its sites (IC50) are calculated by a computer assisted LUNDON-2 program (LUNDON SOFTWARE INC., Ohio, USA).

Vasopressin V2 = Vasopressin V2 Antagonist Activity in Conscious Hydrated Rats; format: in vivo, rat; conditions: AVP 0.4 μg/kg i.p.
Description: Vasopressin V2 Antagonist Activity in Conscious Hydrated Rats
Conscious hydrated rats are treated with compounds under study from 0.1 to 100 mg/kg orally or vehicle. Two to four rats are used for each compound. One hour later, arginine vasopressin (AVP, antidiuretic hormore, ADH) dissolved in peanut oil is administered at 0.4 μg/kg intraperitoneally. Two rats in each test would not receive arginine vasopressin but only the vehicle (peanut oil) to serve as water-loading control. Twenty minutes later each rat is given 30 mL/kg of deionized water orally by gavage and is placed individually in a metabolic cage equipped with a funnel and a graduated glass cylinder to collect urine for four hours. Urine volume is measured and osmolality analyzed by use of a Fiske One-Ten osmometer (Fiske Assoc., Norwood, Mass., USA). Urinary sodium, potassium, and chloride are analyzed by use of ion-specific electrodes in a Beckman E3 (Electrolyte 3) Analyzer.

Vasopressin V1 = Vasopressin V1 Antagonist Activity in Conscious Rats (vasopressin vasopressor response); format: in vivo, rat; set-up: Average Change: unit not given here; conditions: SHR
Description: Vasopressin V1 Antagonist Activity in Conscious Rats
Conscious rats are restrained in a supine position with elastic tape. The area at the base of the tail is locally anesthetized by subcutaneous infiltration with 2% procaine (0.2 ml). Using aseptic technique the ventral caudal tail artery is isolated and a cannula made of PE 10 and 20 (heat-fused) tubing is passed into the lower abdominal aorta. The cannula is secured, heparinized (1000 i.u./cc), sealed and the wound closed with one or two stitches of Dexon 4-0. The caudal vein is also cannulated in the same manner for intravenous drug administration. The duration of the surgery is approximately 5 minutes. Additional local anesthesia (2% procaine or lidocaine) is provided as needed.
The animals are placed in plastic restraining cages in an upright position. The cannula is attached to a Statham P23Db pressure transducer and pulsatile blood pressure is recorded. […] The vasopressin injections are repeated 30,60,90,120,180,240 and 300 min. later. Percentage of antagonism by the compound is calculated using the pre-drug vasopressin vasopressor response as 100%.

[1] = 10 mg/kg i.v., VAS 0.01 i.u./kg, 60 min
[2] = 10 mg/kg i.v., VAS 0.01 i.u./kg, 90 min
[3] = 10 mg/kg i.v., VAS 0.01 i.u./kg, 120 min
[4] = 10 mg/kg i.v., VAS 0.01 i.u./kg, 180 min
[5] = 10 mg/kg i.v., VAS 0.01 i.u./kg, 240 min
[6] = 10 mg/kg i.v., VAS 0.01 i.u./kg, 300 min
[7] = 10 mg/kg i.v., VAS 0.02 i.u./kg, 60 min
[8] = 10 mg/kg i.v., VAS 0.02 i.u./kg, 90 min
[9] = 10 mg/kg i.v., VAS 0.02 i.u./kg, 120 min
[10] = 10 mg/kg i.v., VAS 0.02 i.u./kg, 180 min
[11] = 10 mg/kg i.v., VAS 0.02 i.u./kg, 240 min
[12] = 10 mg/kg i.v., VAS 0.02 i.u./kg, 300 min
[13] = 20 mg/kg i.v., VAS 0.01 i.u./kg, 60 min
[14] = 20 mg/kg i.v., VAS 0.01 i.u./kg, 90 min
[15] = 20 mg/kg i.v., VAS 0.01 i.u./kg, 120 min
[16] = 20 mg/kg i.v., VAS 0.01 i.u./kg, 180 min
[17] = 20 mg/kg i.v., VAS 0.01 i.u./kg, 240 min
[18] = 20 mg/kg i.v., VAS 0.01 i.u./kg, 300 min
[19] = 20 mg/kg i.v., VAS 0.02 i.u./kg, 60 min
[20] = 20 mg/kg i.v., VAS 0.02 i.u./kg, 90 min
[21] = 20 mg/kg i.v., VAS 0.02 i.u./kg, 120 min
[22] = 20 mg/kg i.v., VAS 0.02 i.u./kg, 180 min
[23] = 20 mg/kg i.v., VAS 0.02 i.u./kg, 240 min
[24] = 20 mg/kg i.v., VAS 0.02 i.u./kg, 300 min

Structure (SMILES): O=C(c1ccc([N+](=O)[O-])cc1)N1Cc2ccc(C(=O)C(F)(F)F)n2Cc2ccccc21 [Example 451, 10,11-Dihydro-10-(4-nitrobenzoyl)-[3-(trifluoroacetyl)]-5H-pyrrolo[2,1-c][1,4]benzodiazepine]
- inhibition at 10 µM (oxytocin receptors): 43%

Structure (SMILES): O=C(c1ccc([N+](=O)[O-])cc1)N1Cc2ccc(C(=O)C(Cl)(Cl)Cl)n2Cc2ccccc21 [Example 449, 10,11-dihydro-10-(4-nitrobenzoyl)-[3-(trichloroacetyl)]-5H-pyrazolo[2,1-c]-[1,4]benzodiazepine]
- inhibition at 10 µM (oxytocin receptors): 14%

Structure (SMILES): O=C(Nc1ccc(C(=O)N2Cc3cccn3-c3ccccc32)cc1)c1cc(Cl)ccc1Cl [Example 16, N-[4-(pyrrolo[1,2-a]quinoxalin-5(4H)-ylcarbonyl)phenyl]-2,5-dichloro-benzamide]
- Osmolality (Vasopressin V2; 10 mg/kg orally): 1242 mOsm/kg
- Urine Volume (Vasopressin V2; 10 mg/kg orally): 5.5 ml/4 hrs
- Osmolality (Vasopressin V2; 30 mg/kg orally): 1295 mOsm/kg
- Urine Volume (Vasopressin V2; 30 mg/kg orally): 8 ml/4 hrs

Structure (SMILES): Cc1c(F)cccc1C(=O)Nc1ccc(C(=O)O)cc1Cl [Example 435, 4-[(3-fluoro-2-methylbenzoyl)amino]-3-chlorobenzoic acid]
- inhibition at 10 µM (oxytocin receptors): 10%

Structure (SMILES): O=C(c1ccc([N+](=O)[O-])cc1Cl)N1Cc2ccc(C(=O)C(F)(F)F)n2Cc2ccccc21 [Example 452, 10,11-dihydro-10-(2-chloro-4-nitro-benzoyl)[3-(trifluoroacetyl)]-5H-pyrrolo[2,1-c][1,4]benzodiazepine]
- inhibition at 10 µM (oxytocin receptors): 36%

Structure (SMILES): Cc1c(F)cccc1C(=O)Nc1ccc(C(=O)O)cc1 [Example 418, 4-[(3-fluoro-2-methylbenzoyl)amino]-benzoic acid]
- inhibition at 10 µM (oxytocin receptors): 39%

Structure (SMILES): Cc1cc(C(=O)N2Cc3ccc(C(=O)C(Cl)(Cl)Cl)n3Cc3ccccc32)ccc1[N+](=O)[O-] [Example 448]
- inhibition at 10 µM (oxytocin receptors): 11%

Structure (SMILES): Cc1ccccc1C(=O)Nc1c(C)cc(C(=O)O)cc1C [Example 431, 4-[(2-methylbenzoyl)amino]-3,5-di-methylbenzoic acid]
- inhibition at 10 µM (oxytocin receptors): 18%

Structure (SMILES): CCOC(=O)c1ccc2n1Cc1ccccc1N(C(=O)c1ccc(N)cc1)C2 [Example 464, ethyl 10,11-dihydro-10-(4-aminobenzoyl)-5H-pyrrolo[2,1-c][1,4]benzodiazepine-3-carboxylate]
- IC50 (oxytocin receptors): 2.4 µM
- inhibition at 10 µM (oxytocin receptors): 71%

Structure (SMILES): CCOC(=O)c1ccc2n1Cc1ccccc1N(C(=O)c1ccc([N+](=O)[O-])cc1Cl)C2 [Example 443, Ethyl 10,11-dihydro-10-(2-chloro-4-nitrobenzoyl)-5H-pyrrolo[2,1-c][1,4]benzodiazepine-3-carboxylate]
- inhibition at 10 µM (oxytocin receptors): 70%

Structure (SMILES): Nc1ccc(C(=O)N2Cc3cccn3Cc3ccccc32)c(Cl)c1 [Example 416, 10,11-Dihydro-10-(2-chloro-4-aminobenzoyl)-5H-pyrrolo[2,1-c][1,4]benzodiazepine]
- IC50 (oxytocin receptors): 7.4 µM
- inhibition at 10 µM (oxytocin receptors): 44.6%

Structure (SMILES): O=C(O)c1ccc(NC(=O)c2ccc(Cl)cc2Cl)cc1Cl [Example 429, 4-[(2,4-Dichlorobenzoyl)amino]-2-chlorobenzoic acid]
- inhibition at 10 µM (oxytocin receptors): 11%

Structure (SMILES): Cc1ccc(F)cc1C(=O)Nc1ccc(C(=O)O)cc1 [Example 417, 4-[(5-Fluoro-2-methylbenzoyl)amino]benzoic acid]
- inhibition at 10 µM (oxytocin receptors): 21%

Structure (SMILES): Cc1cc(C(=O)N2Cc3cccn3Cc3ccccc32)ccc1N [Example 95, 10,11-Dihydro-10-(4-amino-3-methylbenzoyl)-5H-pyrrolo[2,1-c][1,4]benzodiazepine]
- % Inhibition (Vasopressin V1; 10 mg/kg i.v., VAS 0.01 i.u./kg, 30 min): 35% and 65%
- % Inhibition (Vasopressin V1; [1]): 78%
- Average Change (Vasopressin V1; [1]): 7
- % Inhibition (Vasopressin V1; [2]): 58%
- Average Change (Vasopressin V1; [2]): 13.5
- % Inhibition (Vasopressin V1; [3]): 58%
- Average Change (Vasopressin V1; [3]): 13.5
- % Inhibition (Vasopressin V1; [4]): 52%
- Average Change (Vasopressin V1; [4]): 15.5
- % Inhibition (Vasopressin V1; [5]): 43%
- Average Change (Vasopressin V1; [5]): 18.5
- % Inhibition (Vasopressin V1; [6]): 52%
- Average Change (Vasopressin V1; [6]): 15.5
- % Inhibition (Vasopressin V1; [7]): 78%
- Average Change (Vasopressin V1; [7]): 12.5
- % Inhibition (Vasopressin V1; [8]): 72%
- Average Change (Vasopressin V1; [8]): 16
- % Inhibition (Vasopressin V1; [9]): 70%
- Average Change (Vasopressin V1; [9]): 17.5
- % Inhibition (Vasopressin V1; [10]): 72%
- Average Change (Vasopressin V1; [10]): 16
- % Inhibition (Vasopressin V1; [11]): 31%
- Average Change (Vasopressin V1; [11]): 39.5
- % Inhibition (Vasopressin V1; [12]): 27%
- Average Change (Vasopressin V1; [12]): 42
- % Inhibition (Vasopressin V1; [13]): 67%
- Average Change (Vasopressin V1; [13]): 15
- % Inhibition (Vasopressin V1; [14]): 70%
- Average Change (Vasopressin V1; [14]): 13.5
- % Inhibition (Vasopressin V1; [15]): 47%
- Average Change (Vasopressin V1; [15]): 24
- % Inhibition (Vasopressin V1; [16]): 48%
- Average Change (Vasopressin V1; [16]): 23.5
- % Inhibition (Vasopressin V1; [17]): 53%
- Average Change (Vasopressin V1; [17]): 21.5
- % Inhibition (Vasopressin V1; [18]): 46%
- Average Change (Vasopressin V1; [18]): 24.5
- % Inhibition (Vasopressin V1; [19]): 68%
- Average Change (Vasopressin V1; [19]): 19.5
- % Inhibition (Vasopressin V1; [20]): 61%
- Average Change (Vasopressin V1; [20]): 24
- % Inhibition (Vasopressin V1; [21]): 53%
- Average Change (Vasopressin V1; [21]): 28.5
- % Inhibition (Vasopressin V1; [22]): 44%
- Average Change (Vasopressin V1; [22]): 34
- % Inhibition (Vasopressin V1; [23]): 44%
- Average Change (Vasopressin V1; [23]): 34
- % Inhibition (Vasopressin V1; [24]): 39%
- Average Change (Vasopressin V1; [24]): 37.5

From US5624923A, “Tricyclic diazepine vasopressin antagonists and oxytocin antagonists” (priority 1995, dated 1997)
